The values that follow come from patent publication US20080021030A1, “Substituted Pyrazoles As Ppar Agonists” (priority 2003, published 2008).

One series addresses T1, hPPAR delta (Homo sapiens, UniProt Q03181).
T1 construct: expressed in transfected cells; host or cells: CV-1 cells
T1 sequence (Q03181 211-439 limits assumed): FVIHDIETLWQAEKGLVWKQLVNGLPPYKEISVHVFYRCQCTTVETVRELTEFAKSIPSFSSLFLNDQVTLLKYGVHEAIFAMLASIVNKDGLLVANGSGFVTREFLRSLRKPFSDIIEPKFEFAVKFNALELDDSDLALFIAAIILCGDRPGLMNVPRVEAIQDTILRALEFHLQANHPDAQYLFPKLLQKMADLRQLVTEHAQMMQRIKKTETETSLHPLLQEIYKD
Briefly: Transient transfection (transactivation) assay in CV-1 cells, GAL4-PPAR LBD chimera, SPAP reporter. Type of series: cell-based. The note with it: read-out: EC50 μM HPPARδ. The gist of the method: (§1)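 CV-1 cells transiently co-transfected with GAL4 DBD–human PPAR LBD chimera plus 5×GAL4-site SPAP reporter and β-galactosidase; after 16 h, compound added in DME with 10% delipidated FCS for 24 h. SPAP activity normalised to β-galactosidase; values in μM.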

The next series concerns the target T2, hPPAR alpha (Homo sapiens, UniProt Q07869).
T2 construct: expressed in transfected cells; host or cells: CV-1 cells
T2 sequence (Q07869 239-466 limits assumed): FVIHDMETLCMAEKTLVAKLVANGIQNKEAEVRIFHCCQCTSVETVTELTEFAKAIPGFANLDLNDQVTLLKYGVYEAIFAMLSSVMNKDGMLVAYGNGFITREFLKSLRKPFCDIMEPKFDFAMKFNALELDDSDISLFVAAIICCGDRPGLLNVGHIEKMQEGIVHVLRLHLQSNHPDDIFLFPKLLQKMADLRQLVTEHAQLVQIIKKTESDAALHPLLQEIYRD
The description is as above. The note with it: read-out: EC50 μM HPPARα. The format is cell-based. A digest of the protocol:
as §1

The next series deals with T3, hPPAR gamma (Homo sapiens, UniProt P37231).
T3 construct: expressed in transfected cells; host or cells: CV-1 cells
T3 sequence (P37231 238-503 limits assumed): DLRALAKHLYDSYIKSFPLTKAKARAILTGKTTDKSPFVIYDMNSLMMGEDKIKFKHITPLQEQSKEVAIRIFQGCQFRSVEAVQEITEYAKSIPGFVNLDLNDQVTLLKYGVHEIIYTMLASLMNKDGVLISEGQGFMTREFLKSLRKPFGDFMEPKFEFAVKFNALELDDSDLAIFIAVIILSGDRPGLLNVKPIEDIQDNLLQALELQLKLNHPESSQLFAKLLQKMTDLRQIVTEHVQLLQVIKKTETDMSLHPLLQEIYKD
The description is as above. Type of series: cell-based. The note with it: read-out: EC50 μM HPPARγ. A digest of the protocol:
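CV-1 cells were transiently transfected with a GAL4 DBD–human PPARγ LBD chimera, a 5×GAL4-site SPAP reporter and β-galactosidase. After 16 h, the cells were exposed to compound in DME with 10% delipidated FCS for 24 h. Alkaline phosphatase and β-galactosidase activities were then measured in cell extracts.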

The EC50 is the concentration giving half of the maximal effect. Usually melting point stands for the temperature of the solid-liquid transition. On to `Cc1cc(CNC(=O)c2cc(-c3ccc(C(C)(C)C)cc3)nn2CC(=O)c2ccccc2)ccc1OC(C)(C)C(=O)O` [Example 49, 2-({4-[({[3-[4-(1,1-dimethylethyl)phenyl]-1-(2-oxo-2-phenylethyl)-1H-pyrazol-5-yl]carbonyl}amino)methyl]-2methylphenyl}oxy)-2-methylpropanoic acid], for which the melting point was found to be 116 °C. The EC50 at hPPAR delta stood at 1.17 µM. Further, the EC50 on hPPAR alpha was found to be 0.257 µM. Further, the EC50 on hPPAR gamma worked out at 0.052 µM.
Consider `Cc1cc(CNC(=O)c2cc(-c3ccc(C(C)(C)C)cc3)[nH]n2)ccc1OC(C)(C)C(=O)O` [Example 53, 2-[(4-{[({5-[4-(1,1-dimethylethyl)phenyl]-1H-pyrazol-3-yl}carbonyl)amino]methyl}-2-methylphenyl)oxy]-2-methylpropanoic acid], for which the melting point was 100 °C. Also, at hPPAR delta, the EC50 was above 25 µM. On hPPAR alpha, the EC50 was determined as 0.383 µM. Moreover, the concentration giving a half-maximal response (EC50) on hPPAR gamma stood at 0.269 µM.
Take `Cc1cc(CNC(=O)c2cc(-c3ccc(Br)cc3)n(C)n2)ccc1OC(C)(C)C(=O)O` [Example 30, 2-({4-[({[5-(4-bromophenyl)-1-methyl-1H-pyrazol-3-yl]carbonyl}amino)methyl]-2-methylphenyl}oxy)-2-methylpropanoic acid]: the melting point lay in the range of 84 to 92 °C. On hPPAR delta, the EC50 turned out to be 3.12 µM. The EC50 on hPPAR alpha is 0.046 µM. Further, the EC50 at hPPAR gamma worked out at 0.229 µM.
Take `C=CCOc1ccc(-c2cc(C(=O)NCc3ccc(OC(C)(C)C(=O)O)c(C)c3)n(C)n2)cc1` [Example 56, 2-methyl-2-[(2-methyl-4-{[({1-methyl-3-[4-(2-propen-1-yloxy)phenyl]-1H-pyrazol-5-yl}carbonyl)amino]methyl}phenyl)oxy]propanoic acid]: the melting point came to 70 °C. Further, the EC50 on hPPAR delta was above 25 µM. On hPPAR alpha, the EC50 was 0.894 µM. The EC50 on hPPAR gamma was 0.287 µM.
For `CCCCc1ccc(-c2cc(C(=O)NCc3cc(C)c(OC(C)(C)C(=O)O)c(Cl)c3)nn2C)cc1` [Example 38, 2-{4-[({[5-(4-butylphenyl)-1-methyl-1H-pyrazol-3-yl]carbonyl}amino)methyl]-2-chloro-6-methylphenoxy}-2-methylpropanoic acid] the same measures were 74 °C, above 25 µM, 0.01 µM and 0.072 µM.
`CCCCc1ccc(-c2cc(C(=O)NCc3cc(C)c(OC(C)(C)C(=O)O)c(C)c3)nn2C)cc1` [Example 37, 2-{4-[({[5-(4-butylphenyl)-1-methyl-1H-pyrazol-3-yl]carbonyl}amino)methyl]-2,6-dimethylphenoxy}-2-methylpropanoic acid] returned a melting point of 72 °C. Moreover, the EC50 at hPPAR delta was 0.449 µM. Also, at hPPAR alpha, the EC50 is 0.006 µM. In addition, the EC50 on hPPAR gamma is 0.021 µM.
`Cc1cc(CNC(=O)c2cc(-c3cccc(-c4ccccc4)c3)nn2C)ccc1OC(C)(C)C(=O)O` [Example 28, 2-[4-({[(3-biphenyl-3-yl-1-methyl-1H-pyrazol-5-yl)carbonyl]amino}methyl)-2-methylphenoxy]-2-methylpropanoic acid] registered a melting point of 88 °C. In addition, the EC50 on hPPAR delta is above 25 µM. In addition, on hPPAR alpha, the EC50 stood at 0.589 µM. For the same compound, at hPPAR gamma, the EC50 turned out to be 1.47 µM.
